Source: paper PMC9458111, “New 1,2,3-Triazole-Coumarin-Glycoside Hybrids and Their 1,2,4-Triazolyl Thioglycoside Analogs Targeting Mitochondria Apoptotic Pathway: Synthesis, Anticancer Activity and Docking Simulation” (Molecules, 2022)

Experiments:
[1] = tested on: human colon cell line (HCT-116 cell lines); test: MTT cytotoxicity assay, HCT-116; format: cell-based; settings: for cytotoxicity at 100 µM: HCT-116, 48 h
Experimental: (§1) The synthesized compounds were studied for their cytotoxic activity against several human cancer cell lines, namely human osteosarcoma (HOS cell lines), human breast adenocarcinoma (MDA-MB-231 cell lines), human breast cancer (MCF-7 cell lines), human colorectal adenocarcinoma (Caco-2 cell lines) and human colon cell line (HCT-116 cell lines) using MTT assay at 100 µM, and the results were outlined as shown in Table 1.
(§2) Human osteosarcoma (HOS cell line), human breast adenocarcinoma (MDA-MB-231cell lines), human breast cancer (MCF-7 cell lines), human colorectal adenocarcinoma (Caco2 cell lines), human colon cell line (HCT-116 cell lines), normal human cell lines (BJ-1), and “a telomerase immortalized normal foreskin fibroblast cell line” were obtained from Karolinska Center, Department of Oncology and Pathology, Karolinska Institute and Hospital, Stockholm, Sweden.
(§3) Following culturing for 10 days, the cells were seeded at concentration of 10 × 10^3 cells per well in case of MCF-7 & MDA, 20 × 10^3 cells/well in a fresh complete growth medium in case of HCT-116, Caco2, & HOS and 40 × 10^3 cells/well in case of BJ-1 at 37 °C for 24 h in a water jacketed carbon dioxide incubator. After 48 h’ incubation, the medium was aspirated, and then 40 μl MTT salt (2.5 mg/mL) were added for a further 4 h; 200 μl 10% sodium dodecyl sulphate (SDS) in deionized water were added to each well and incubated overnight at 37 °C. The absorbance was measured at 595 nm with reference 690 nm. Doxorubicin was used as positive control, and 0.5% DMSO was used as negative control. IC50 values were calculated, using a probit analysis, and by utilizing the SPSS computer program (SPSS for Windows, statistical analysis software package/version 9/1989 SPSS Inc., Chicago, IL, USA).

[2] = tested on: normal human skin cell lines BJ-1; test: Safety on normal human skin cells BJ-1 (MTT); format: cell-based; settings: 100 µM
Experimental: To determine the selectivity and safety, all tested compounds were subjected to an assay for their safety upon normal human skin cell lines BJ-1 at a concentration of 100 µM.
as §2, §3

[3] = tested on: human breast adenocarcinoma (MDA-MB-231 cell lines); test: MTT cytotoxicity assay, MDA-MB-231; format: cell-based; settings: for cytotoxicity at 100 µM: MDA-MB-231, 48 h
Experimental: as §1, §2, §3

[4] = tested on: human breast cancer (MCF-7 cell lines); test: MTT cytotoxicity assay, MCF-7; format: cell-based; settings: MCF7, 48 h
Experimental: as §1, §2, §3

[5] = tested on: human osteosarcoma (HOS cell lines); test: MTT cytotoxicity assay, HOS; format: cell-based; settings: for cytotoxicity at 100 µM: 48 h; for IC50: MTT, 0.78–100 µM, ± SD
Experimental: as §1, §2, §3

[6] = tested on: human colorectal adenocarcinoma (Caco-2 cell lines); test: MTT cytotoxicity assay, Caco-2; format: cell-based; settings: Caco-2, 48 h
Experimental: as §1, §2, §3

Compound	cytotoxicity at 100 µM [1] [%]	Toxicity on normal skin cells BJ-1 (in words) [2]	cytotoxicity at 100 µM [3] [%]	cytotoxicity at 100 µM [4] [%]	cytotoxicity at 100 µM [5] [%]	melting point [°C]	cytotoxicity at 100 µM [6] [%]	IC50 ([3]; MDA-MB-231, MTT, 0.78–100 µM, ± SD) [µM]	IC50 [5] [µM]	IC50 ([1]; HCT-116, MTT, 0.78–100 µM, ± SD) [µM]
O=c1cc(-c2ccccc2)c2ccc(OCCCCn3cc(CO[C@@H]4O[C@H](CO)[C@H](O)[C@H](O)[C@H]4O)nn3)cc2o1 [Compound 26]	83.9 ± 0.9	high toxicity	31.4 ± 0.5	91.8 ± 1.2	66.9 ± 2.2	195 to 196	2.6 ± 0.2			
[N-]=[N+]=NCCCOc1ccc2c(-c3ccccc3)cc(=O)oc2c1 [Compound 18, 7-(3-Azidopropoxy)-4-phenyl-2H-chromen-2-one]						110 to 111				
[N-]=[N+]=NCCCCOc1ccc2c(-c3ccccc3)cc(=O)oc2c1 [Compound 19, 7-(4-Azidobutoxy)-4-phenyl-2H-chromen-2-one]						114 to 116				
O=c1cc(-c2ccccc2)c2ccc(OCCCCI)cc2o1 [Compound 17, 7-(4-Iodobutoxy)-4-phenyl-2H-chromen-2-one]	38.2 ± 0.7		7.7 ± 0.4	38.5 ± 1.2	50.8 ± 0.7	143 to 145	34.3 ± 0.3			
Cn1c(COc2ccc3c(-c4ccccc4)cc(=O)oc3c2)nnc1S[C@@H]1O[C@H](CO)[C@H](O)[C@H](O)[C@H]1O [Compound 7, 4-Phenyl-7-((4-methyl-5-(1-(β-D-galactopyranosyl)thio)-4H-1,2,4-triazol-3-yl)methoxy)-2H-chromen-2-one]	16.6 ± 0.8		15.5 ± 1.1	14.3 ± 0.2	7.3 ± 0.3		35.7 ± 0.3			
Cn1c(COc2ccc3c(-c4ccccc4)cc(=O)oc3c2)nnc1SCC(O)CO (centres unmarked) [Compound 13, 4-Phenyl-7-((5-((2,3-dihydroxypropyl)thio)-4-methyl-4H-1,2,4-triazol-3-yl)meth-oxy)-2H-chromen-2-one]	26.1 ± 0.3		0	51.9 ± 0.2	2.8 ± 0.2	170 to 171	16.6 ± 0.7			
CC(=O)O[C@@H]1[C@@H](OC(C)=O)[C@H](OCc2cn(CCCOc3ccc4c(-c5ccccc5)cc(=O)oc4c3)nn2)OC[C@H]1OC(C)=O [Compound 22]	97.3 ± 0.8	high toxicity	97.1 ± 1.1	91.9 ± 0.8	90.6 ± 1.5	127 to 128	57.5 ± 0.5			
CCn1c(COc2ccc3c(-c4ccccc4)cc(=O)oc3c2)nnc1SCCOCCO [Compound 12, 4-Phenyl-7-((4-ethyl-5-((2-(2-hydroxyethoxy)ethyl)thio)-4H-1,2,4-triazol-3-yl)methoxy)-2H-chromen-2-one]	84.4 ± 0.8	high toxicity	91.2 ± 0.8	97.6 ± 0.9	97.2 ± 1.3	152 to 153	92 ± 1.3			
CCn1c(COc2ccc3c(-c4ccccc4)cc(=O)oc3c2)n[nH]c1=S [Compound 1b]	81 ± 1.2	high toxicity	69.7 ± 2.4	88 ± 1.4	92 ± 2.1		77.7 ± 0.8			
CCn1c(COc2ccc3c(-c4ccccc4)cc(=O)oc3c2)nnc1S[C@@H]1O[C@H](COC(C)=O)[C@H](OC(C)=O)[C@H](OC(C)=O)[C@H]1OC(C)=O [Compound 5, 4-Phenyl-7-((4-ethyl-5-(1-(2,3,4,6-tetra-O-acetyl-β-D-galactopyranosyl)thio)-4H-1,2,4-triazol-3-yl)methoxy)-2H-chromen-2-one]	7.6 ± 0.2		18.5 ± 0.6	2.8 ± 0.2	24.9 ± 0.6	151 to 152	20.6 ± 0.3			
Cn1c(COc2ccc3c(-c4ccccc4)cc(=O)oc3c2)nnc1SCCOCCO [Compound 11, 4-Phenyl-7-((5-((2-(2-hydroxyethoxy)ethyl)thio)-4-methyl-4H-1,2,4-triazol-3-yl)methoxy)-2H-chromen-2-one]	91.7 ± 1.1	high toxicity	62.4 ± 0.7	86.7 ± 0.7	39.7 ± 0.8	155 to 156	19.1 ± 0.4			
CC(=O)O[C@@H]1[C@@H](OC(C)=O)[C@H](Sc2nnc(COc3ccc4c(-c5ccccc5)cc(=O)oc4c3)n2C)OC[C@H]1OC(C)=O [Compound 4, 4-Phenyl-7-((4-methyl-5-(1-(2,3,4-tri-O-acetyl-β-D-xylopyranosyl)thio)-4H-1,2,4-triazol-3-yl)methoxy)-2H-chromen-2-one]	15 ± 0.6		36.9 ± 1.2	17.1 ± 0.3	45.5 ± 0.6	132 to 133	24.9 ± 0.6			
CCn1c(COc2ccc3c(-c4ccccc4)cc(=O)oc3c2)nnc1SCC(O)CO (centres unmarked) [Compound 14, 4-Phenyl-7-((5-((2,3-dihydroxypropyl)thio)-4-ethyl-4H-1,2,4-triazol-3-yl)methoxy)-2H-chromen-2-one]	95.2 ± 0.9	high toxicity	97.8 ± 0.7	98.1 ± 0.3	90.5 ± 1.1	180 to 181	91.2 ± 2.1			
O=c1cc(-c2ccccc2)c2ccc(OCCCI)cc2o1 [Compound 16, 7-(3-Iodopropoxy)-4-phenyl-2H-chromen-2-one]	12.8 ± 1.1		88.3 ± 1.4	35.6 ± 0.8	91.2 ± 2.2	130 to 131	54.3 ± 0.4	39.5 ± 0.9	26.2 ± 1.4	
Cn1c(COc2ccc3c(-c4ccccc4)cc(=O)oc3c2)n[nH]c1=S [Compound 1a]	16.8 ± 0.1		24.1 ± 1.4	15.6 ± 0.2	42.5 ± 1.2		34.8 ± 1.3			
CC(=O)OC[C@H]1O[C@@H](OCc2cn(CCCCOc3ccc4c(-c5ccccc5)cc(=O)oc4c3)nn2)[C@H](OC(C)=O)[C@@H](OC(C)=O)[C@H]1OC(C)=O [Compound 23]	30.4 ± 0.7		28.6 ± 0.2	35.2 ± 0.3	0	118 to 119	13.6 ± 0.4			
O=c1cc(-c2ccccc2)c2ccc(O)cc2o1 [Compound 15, 7-hydroxy-4-phenyl-2H-chromen-2-one]	89.3 ± 0.7		34.5 ± 0.4	36.8 ± 1.1	62.7 ± 1.5		46.1 ± 0.6		88.3 ± 2.2	46 ± 2.2
CC(=O)OC[C@H]1O[C@@H](Sc2nnc(COc3ccc4c(-c5ccccc5)cc(=O)oc4c3)n2C)[C@H](OC(C)=O)[C@@H](OC(C)=O)[C@H]1OC(C)=O [Compound 3, 4-Phenyl-7-((4-methyl-5-(1-(2,3,4,6-tetra-O-acetyl-β-D-galactopyranosyl)thio)-4H-1,2,4-triazol-3-yl)methoxy)-2H-chromen-2-one]	11.1 ± 0.4		15.4 ± 0.5	9.8 ± 0.6	18.4 ± 0.7	211 to 213	23.2 ± 1.1			
CCn1c(COc2ccc3c(-c4ccccc4)cc(=O)oc3c2)nnc1S[C@@H]1OC[C@@H](OC(C)=O)[C@H](OC(C)=O)[C@H]1OC(C)=O [Compound 6, 4-Phenyl-7-((4-ethyl-5-(1-(2,3,4-tri-O-acetyl-β-D-xylopyranosyl)thio)-4H-1,2,4-triazol-3-yl)methoxy)-2H-chromen-2-one]	18.9 ± 0.6		7.4 ± 0.3	14.3 ± 0.1	33.1 ± 0.2	127 to 128	30.1 ± 0.1			
CCn1c(COc2ccc3c(-c4ccccc4)cc(=O)oc3c2)nnc1S[C@@H]1O[C@H](CO)[C@H](O)[C@H](O)[C@H]1O [Compound 9, 4-Phenyl-7-((4-ethyl-5-(1-(β-D-galactopyranosyl)thio)-4H-1,2,4-triazol-3-yl)meth-oxy)-2H-chromen-2-one]	22.7 ± 0.9		27.7 ± 0.4	37.8 ± 0.3	20.4 ± 0.4	184 to 185	1.7 ± 0.1			
